According to patent US20250320193A1, “OXOISOINDOLINYL SUBSTITUTED PIPERIDINEDIONE DERIVATIVE AND USE THEREOF” (GLUETACS THERAPEUTICS (SHANGHAI) CO., LTD., priority 2022, published 2025):

Assays:
[1] = target: human Cereblon WT GST-tagged protein (Homo sapiens (Human), UniProt Q96SW2); assay: CRBN-binding affinity, HTRF (CEREBLON BINDING kit, CISBIO); settings: HTRF inhibitory activity
Summary of the method: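 HTRF competition format: test compound displaces Thalidomide-Red from GST-tagged human Cereblon WT, detected with a Eu-labelled anti-GST antibody. Percent CRBN binding inhibition was derived from the 620 nm signal, normalized to solvent-control and protein-free blank wells.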

IKZF1 = IKZF1 (Homo sapiens (Human), UniProt Q13422+Q96SW2); assay: Western blot, substrate protein expression in hPBMC: IKZF1; assay type: cell-based; settings: hPBMC, compound 500 nM, 24 hours, Western blot
Method: (§1) The effect of the compounds of the present disclosure on the expression of target proteins in cells was detected using conventional Western blot analysis.
(§2) Human peripheral blood mononuclear cells (hPBMCs) at a density of 1×10^6 cells/mL were thawed according to the PBMC Recovery Protocol (Milecell Biotechnologies Inc, Shanghai). […] After 24 hours of compounds treatment, cells were harvested and lysed in RIPA protein lysate containing phosphatase inhibitors on ice for 30-60 min, followed by centrifugation. The supernatant was aspirated as the extracted total cell protein. The protein concentration of the supernatant was determined using the conventional BCA (Bicinchoninic Acid) assay. The supernatant was then mixed with 4× SDS sample loading buffer, denatured at 95° C. for 5 minutes, and then subjected to SDS-PAGE electrophoresis on a polyacrylamide gel. Proteins were then transferred to a nitrocellulose (NC) membrane, blocked at room temperature for 1-2 h, and processed for antibody incubation and detection according to the manufacturer's instructions (Cell Signaling Technology).
(§3) Half-Maximal Degradation Concentration value (the drug concentration required for degrading proteins by 50%, abbreviated as DC50) reads method: comparing the grayscale values of Western blot bands from drug-treated samples (protein degrader compounds) with those from blank (DMSO-treated) controls, and identifying the drug concentration range at which the grayscale value is half that of the DMSO-treated control bands.
(§4) DC50 values can be calculated using ImageJ software to measure grayscale values of Western blot bands from drug-treated samples. The relationship curve between drug concentration and grayscale values is fitted to estimate the drug concentration corresponding to half the grayscale value.
(§5) Target protein remaining (%) refers to the percentage of target protein remaining in hPBMC cells after treatment with protein degrader compounds.
(§6) Calculation method for protein remaining (%): Use ImageJ software to measure grayscale values of Western blot bands from drug (protein degrader)-treated samples. The grayscale value of drug-treated bands is divided by that of internal control protein bands, and the resulting quotient is normalized to obtain the relative percentage of remaining target protein after protein degrader treatment.
(§7) Target protein degradation rate (%)=100%-target protein remaining (%).

IKZF3 = IKZF3 (Homo sapiens (Human), UniProt Q96SW2+Q9UKT9); assay: Western blot, substrate protein expression in hPBMC: IKZF3; assay type: cell-based; settings: hPBMC, compound 500 nM, 24 hours, Western blot
Method: as §1, §2, §3, §4, §5, §6, §7

GSPT1 = GSPT1 (Homo sapiens (Human), UniProt P15170+Q96SW2); assay: Western blot, substrate protein expression in hPBMC: GSPT1; assay type: cell-based; settings: hPBMC, compound 500 nM, 24 hours, Western blot
Method: as §1, §2, §3, §4, §5, §6, §7

Chain of human Cereblon WT GST-tagged protein (Q96SW2 whole entry): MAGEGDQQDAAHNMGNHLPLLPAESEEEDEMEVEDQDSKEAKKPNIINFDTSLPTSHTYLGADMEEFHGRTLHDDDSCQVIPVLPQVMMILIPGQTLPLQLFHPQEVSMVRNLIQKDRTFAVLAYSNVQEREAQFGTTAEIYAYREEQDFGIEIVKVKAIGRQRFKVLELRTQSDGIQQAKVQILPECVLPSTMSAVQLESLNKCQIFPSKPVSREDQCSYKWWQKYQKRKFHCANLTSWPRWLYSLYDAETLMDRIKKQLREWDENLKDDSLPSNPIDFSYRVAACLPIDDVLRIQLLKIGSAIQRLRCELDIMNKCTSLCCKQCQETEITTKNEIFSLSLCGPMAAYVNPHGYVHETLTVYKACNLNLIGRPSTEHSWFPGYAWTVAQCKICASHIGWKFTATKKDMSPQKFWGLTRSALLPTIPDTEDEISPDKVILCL
Chain of GSPT1 (P15170 whole entry): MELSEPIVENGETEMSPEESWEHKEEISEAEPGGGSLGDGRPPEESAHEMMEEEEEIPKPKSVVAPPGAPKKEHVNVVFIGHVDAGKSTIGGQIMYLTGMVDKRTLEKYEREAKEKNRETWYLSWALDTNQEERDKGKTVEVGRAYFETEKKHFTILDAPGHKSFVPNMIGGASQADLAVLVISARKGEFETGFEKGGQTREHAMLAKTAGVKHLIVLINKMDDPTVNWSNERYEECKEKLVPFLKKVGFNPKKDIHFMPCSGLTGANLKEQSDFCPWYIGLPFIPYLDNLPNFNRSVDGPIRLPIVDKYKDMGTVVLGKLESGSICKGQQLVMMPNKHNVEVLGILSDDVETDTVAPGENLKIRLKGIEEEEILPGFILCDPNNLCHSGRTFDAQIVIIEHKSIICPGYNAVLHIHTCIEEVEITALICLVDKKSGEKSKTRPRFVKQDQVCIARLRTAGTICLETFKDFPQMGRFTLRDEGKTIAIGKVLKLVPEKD
Chain of GSPT1 (Q96SW2 whole entry): as the sequence (Q96SW2 whole entry) above
Chain of GSPT1 (Q16531 whole entry partner): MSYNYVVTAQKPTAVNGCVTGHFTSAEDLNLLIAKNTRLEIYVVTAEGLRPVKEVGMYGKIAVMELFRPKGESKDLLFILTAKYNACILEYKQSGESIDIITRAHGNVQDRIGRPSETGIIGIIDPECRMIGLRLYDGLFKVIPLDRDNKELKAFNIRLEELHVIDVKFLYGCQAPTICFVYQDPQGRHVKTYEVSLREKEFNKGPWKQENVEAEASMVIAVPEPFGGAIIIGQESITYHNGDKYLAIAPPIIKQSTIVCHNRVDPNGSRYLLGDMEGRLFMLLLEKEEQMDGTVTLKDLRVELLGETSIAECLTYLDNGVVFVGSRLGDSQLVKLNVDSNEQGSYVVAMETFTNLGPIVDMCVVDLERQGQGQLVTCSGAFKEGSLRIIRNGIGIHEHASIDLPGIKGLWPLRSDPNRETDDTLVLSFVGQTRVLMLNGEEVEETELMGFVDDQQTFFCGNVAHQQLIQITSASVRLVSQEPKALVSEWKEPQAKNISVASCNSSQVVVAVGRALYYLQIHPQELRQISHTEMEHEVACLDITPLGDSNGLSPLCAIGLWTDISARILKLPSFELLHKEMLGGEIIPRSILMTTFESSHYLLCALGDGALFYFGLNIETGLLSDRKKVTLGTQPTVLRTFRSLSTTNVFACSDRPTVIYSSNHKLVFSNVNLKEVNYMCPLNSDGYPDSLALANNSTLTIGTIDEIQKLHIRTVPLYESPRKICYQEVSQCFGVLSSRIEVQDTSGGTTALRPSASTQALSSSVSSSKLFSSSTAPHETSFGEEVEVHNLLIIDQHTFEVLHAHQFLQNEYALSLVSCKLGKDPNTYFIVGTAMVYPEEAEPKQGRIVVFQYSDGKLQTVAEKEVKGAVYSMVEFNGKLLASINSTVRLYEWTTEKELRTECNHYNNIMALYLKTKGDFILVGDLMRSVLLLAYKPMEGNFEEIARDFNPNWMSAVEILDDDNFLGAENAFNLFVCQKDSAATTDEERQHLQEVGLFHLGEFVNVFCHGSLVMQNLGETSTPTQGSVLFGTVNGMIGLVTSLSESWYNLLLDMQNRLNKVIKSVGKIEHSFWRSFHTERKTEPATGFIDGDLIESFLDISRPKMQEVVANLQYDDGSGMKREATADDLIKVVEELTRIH
Chain of IKZF1 (Q13422 whole entry): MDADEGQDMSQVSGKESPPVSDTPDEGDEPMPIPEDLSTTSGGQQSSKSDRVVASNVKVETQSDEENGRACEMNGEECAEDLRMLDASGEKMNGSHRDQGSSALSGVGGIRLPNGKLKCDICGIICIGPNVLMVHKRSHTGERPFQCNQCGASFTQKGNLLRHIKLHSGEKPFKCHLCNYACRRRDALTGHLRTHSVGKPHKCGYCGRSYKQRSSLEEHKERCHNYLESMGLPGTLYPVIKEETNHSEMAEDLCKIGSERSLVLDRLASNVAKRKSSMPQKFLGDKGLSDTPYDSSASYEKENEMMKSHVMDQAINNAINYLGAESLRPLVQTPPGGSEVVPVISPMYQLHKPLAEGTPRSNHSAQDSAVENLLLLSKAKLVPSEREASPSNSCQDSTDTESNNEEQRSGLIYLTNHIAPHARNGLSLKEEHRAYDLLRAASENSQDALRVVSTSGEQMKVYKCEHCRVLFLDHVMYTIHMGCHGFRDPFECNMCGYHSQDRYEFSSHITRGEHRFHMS
Chain of IKZF1 (Q96SW2 whole entry): as the sequence (Q96SW2 whole entry) above
Chain of IKZF1 (Q16531 whole entry partner): as the sequence (Q16531 whole entry partner) above
Chain of IKZF3 (Q9UKT9 whole entry): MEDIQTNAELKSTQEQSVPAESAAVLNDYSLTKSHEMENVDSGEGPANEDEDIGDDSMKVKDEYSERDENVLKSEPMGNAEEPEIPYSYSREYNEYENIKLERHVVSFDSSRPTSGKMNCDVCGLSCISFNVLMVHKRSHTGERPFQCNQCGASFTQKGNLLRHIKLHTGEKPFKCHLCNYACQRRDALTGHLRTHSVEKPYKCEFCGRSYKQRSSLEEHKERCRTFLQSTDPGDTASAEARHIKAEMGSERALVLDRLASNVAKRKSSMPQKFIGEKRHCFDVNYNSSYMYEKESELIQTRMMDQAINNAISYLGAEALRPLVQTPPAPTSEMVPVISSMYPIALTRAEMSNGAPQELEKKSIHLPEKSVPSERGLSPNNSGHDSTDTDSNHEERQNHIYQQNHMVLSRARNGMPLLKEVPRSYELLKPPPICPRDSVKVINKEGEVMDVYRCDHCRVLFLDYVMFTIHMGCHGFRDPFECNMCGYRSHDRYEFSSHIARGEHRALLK
Chain of IKZF3 (Q96SW2 whole entry): as the sequence (Q96SW2 whole entry) above
Chain of IKZF3 (Q16531 whole entry partner): as the sequence (Q16531 whole entry partner) above

Row | Structure (SMILES) | IC50 [1] | substrate protein remaining % IKZF1 (IKZF1) | substrate protein remaining % IKZF3 (IKZF3) | substrate protein remaining % GSPT1 (GSPT1)
1 | O=C1CCC(N2Cc3cc(CN4CCN(C(c5ccc(F)cc5)c5ccc(F)cc5)CC4)cc(F)c3C2=O)C(=O)N1 (stereo not shown) [GT-03565, 3-(5-((4-(bis(4-fluorophenyl)methyl)piperazin-1-yl)methyl)-7-fluoro-1-oxoisoindolin-2-yl)piperidine-2,6-dione] | < 500 nM | B (B represents substrate protein remaining % > 50%) | B (B represents substrate protein remaining % > 50%) | A (A represents 0% ≤ substrate protein remaining % ≤ 50%)
2 | O=C1CCC(N2Cc3c(ccc(CN4CCN(C(c5ccc(Cl)cc5)c5ccc(Cl)cc5)CC4)c3F)C2=O)C(=O)N1 (stereo not shown) [GT-03567, 3-(5-((4-(bis(4-chlorophenyl)methyl)piperazin-1-yl)methyl)-4-fluoro-1-oxoisoindolin-2-yl)piperidine-2,6-dione] | 1000 to 1900 nM | B (B represents substrate protein remaining % > 50%) | A (A represents 0% ≤ substrate protein remaining % ≤ 50%) | A (A represents 0% ≤ substrate protein remaining % ≤ 50%)
3 | O=C1CCC(N2Cc3cc(CN4C5CC4CN(C(c4ccccc4)c4ccccc4)C5)ccc3C2=O)C(=O)N1 (stereo not shown) [GT-03569, 3-(5-((3-benzhydryl-3,6-diazabicyclo[3.1.1]heptan-6-yl)methyl)-1-oxoisoindolin-2-yl)piperidine-2,6-dione] | 500 to 1000 nM | B (B represents substrate protein remaining % > 50%) | A (A represents 0% ≤ substrate protein remaining % ≤ 50%) | A (A represents 0% ≤ substrate protein remaining % ≤ 50%)
4 | O=C1CCC(N2Cc3cc(CN4C[C@H]5C[C@@H]4CN5C(c4ccccc4)c4ccccc4)ccc3C2=O)C(=O)N1 (stereo partly drawn) [GT-03570, 3-(5-(((1R,4R)-5-benzhydryl-2,5-diazabicyclo[2.2.1]heptan-2-yl)methyl)-1-oxoisoindolin-2-yl)piperidine-2,6-dione] | < 500 nM | B (B represents substrate protein remaining % > 50%) | B (B represents substrate protein remaining % > 50%) | A (A represents 0% ≤ substrate protein remaining % ≤ 50%)
5 | O=C1CCC(N2C(=O)c3ccc(CN4CCN(C(c5ccccc5)c5ccncc5)CC4)cc3C2=O)C(=O)N1 (stereo not shown) [GT-06115, 2-(2,6-dioxopiperidin-3-yl)-5-((4-(phenyl(pyridin-4-yl)methyl)piperazin-1-yl)methyl) isoindoline-1,3-dione] | – | B (B represents substrate protein remaining % > 50%) | B (B represents substrate protein remaining % > 50%) | A (A represents 0% ≤ substrate protein remaining % ≤ 50%)
6 | O=C1CCC(N2Cc3c(ccc(CN4CCN(C(c5ccc(C(F)(F)F)cc5)c5ccc(C(F)(F)F)cc5)CC4)c3F)C2=O)C(=O)N1 (stereo not shown) [GT-06200, 3-(5-((4-(bis(4-(trifluoromethyl)phenyl)methyl)piperazin-1-yl)methyl)-4-fluoro-1-oxoisoindolin-2-yl)piperidine-2,6-dione] | – | B (B represents substrate protein remaining % > 50%) | A (A represents 0% ≤ substrate protein remaining % ≤ 50%) | A (A represents 0% ≤ substrate protein remaining % ≤ 50%)
7 | O=C1CCC(N2Cc3cc(CN4CCN(C(c5ccc(C(F)(F)F)cc5)c5ccc(C(F)(F)F)cc5)CC4)c(F)cc3C2=O)C(=O)N1 (stereo not shown) [GT-06201, 3-(5-((4-(bis(4-(trifluoromethyl)phenyl)methyl)piperazin-1-yl)methyl)-6-fluoro-1-oxoisoindolin-2-yl)piperidine-2,6-dione] | – | B (B represents substrate protein remaining % > 50%) | A (A represents 0% ≤ substrate protein remaining % ≤ 50%) | A (A represents 0% ≤ substrate protein remaining % ≤ 50%)
8 | O=C1CCC(N2C(=O)c3ccc(CN4CCN(C(c5ccc(C(F)(F)F)cc5)c5ccc(C(F)(F)F)cc5)CC4)cc3C2=O)C(=O)N1 (stereo not shown) [GT-06203, 5-((4-(bis(4-(trifluoromethyl)phenyl)methyl)piperazin-1-yl)methyl)-2-(2,6-dioxopiperidin-3-yl) isoindoline-1,3-dione] | – | B (B represents substrate protein remaining % > 50%) | A (A represents 0% ≤ substrate protein remaining % ≤ 50%) | A (A represents 0% ≤ substrate protein remaining % ≤ 50%)
9 | O=C1CCC(N2C(=O)c3ccc(C(=O)N4CCN(C(c5ccc(C(F)(F)F)cc5)c5ccc(C(F)(F)F)cc5)CC4)cc3C2=O)C(=O)N1 (stereo not shown) [GT-06217, 5-(4-(bis(4-(trifluoromethyl)phenyl)methyl)piperazine-1-carbonyl)-2-(2,6-dioxopiperidin-3-yl) isoindoline-1,3-dione] | – | B (B represents substrate protein remaining % > 50%) | B (B represents substrate protein remaining % > 50%) | A (A represents 0% ≤ substrate protein remaining % ≤ 50%)
10 | CC1(C)CN(C(=O)c2ccc3c(c2)C(=O)N(C2CCC(=O)NC2=O)C3=O)CCN1C(c1ccccc1)c1ccccc1 (stereo not shown) [GT-06278, 5-(4-benzhydryl-3,3-dimethylpiperazine-1-carbonyl)-2-(2,6-dioxopiperidin-3-yl) isoindoline-1,3-dione] | – | B (B represents substrate protein remaining % > 50%) | B (B represents substrate protein remaining % > 50%) | A (A represents 0% ≤ substrate protein remaining % ≤ 50%)
11 | O=C1CCC(N2Cc3cc(CN4CCN(C(c5ccc(OCc6ccccc6)cc5)c5ccc(OCc6ccccc6)cc5)CC4)ccc3C2=O)C(=O)N1 (stereo not shown) [GT-06424, 3-(5-((4-(bis(4-(benzyloxy)phenyl)methyl)piperazin-1-yl)methyl)-1-oxoisoindolin-2-yl)piperidine-2,6-dione] | – | B (B represents substrate protein remaining % > 50%) | A (A represents 0% ≤ substrate protein remaining % ≤ 50%) | A (A represents 0% ≤ substrate protein remaining % ≤ 50%)
12 | O=C1CCC(N2C(=O)c3ccc(CN4CCN(C(c5ccc(OCc6ccccc6)cc5)c5ccc(OCc6ccccc6)cc5)CC4)cc3C2=O)C(=O)N1 (stereo not shown) [GT-06425, 5-((4-(bis(4-(benzyloxy)phenyl)methyl)piperazin-1-yl)methyl)-2-(2,6-dioxopiperidin-3-yl) isoindoline-1,3-dione] | – | B (B represents substrate protein remaining % > 50%) | A (A represents 0% ≤ substrate protein remaining % ≤ 50%) | A (A represents 0% ≤ substrate protein remaining % ≤ 50%)
13 | O=C1CCC(N2C(=O)c3ccc(C(=O)N4CCN(C(c5ccc(OCc6ccccc6)cc5)c5ccc(OCc6ccccc6)cc5)CC4)cc3C2=O)C(=O)N1 (stereo not shown) [GT-06558, 5-(4-(bis(4-(benzyloxy)phenyl)methyl)piperazine-1-carbonyl)-2-(2,6-dioxopiperidin-3-yl) isoindoline-1,3-dione] | – | A (A represents 0% ≤ substrate protein remaining % ≤ 50%) | B (B represents substrate protein remaining % > 50%) | A (A represents 0% ≤ substrate protein remaining % ≤ 50%)
14 | O=C1CCC(N2C(=O)c3ccc(C(=O)N4CCN(C(c5cc(F)cc(F)c5)c5cc(F)cc(F)c5)CC4)cc3C2=O)C(=O)N1 (stereo not shown) [GT-06598, 5-(4-(bis(3,5-difluorophenyl)methyl)piperazine-1-carbonyl)-2-(2,6-dioxopiperidin-3-yl) isoindoline-1,3-dione] | – | B (B represents substrate protein remaining % > 50%) | B (B represents substrate protein remaining % > 50%) | A (A represents 0% ≤ substrate protein remaining % ≤ 50%)
15 | O=C1CCC(N2C(=O)c3ccc(CN4CCN(C(c5ccccc5)c5ccc(Br)cc5)CC4)cc3C2=O)C(=O)N1 (stereo not shown) [GT-06639, 5-((4-((4-bromophenyl) (phenyl)methyl)piperazin-1-yl)methyl)-2-(2,6-dioxopiperidin-3-yl) isoindoline-1,3-dione] | – | A (A represents 0% ≤ substrate protein remaining % ≤ 50%) | A (A represents 0% ≤ substrate protein remaining % ≤ 50%) | A (A represents 0% ≤ substrate protein remaining % ≤ 50%)
